Laboratory results as given in paper PMC4965013, “Open Source Drug Discovery with the Malaria Box Compound Collection for Neglected Diseases and Beyond” (PLoS Pathogens, 2016).

What was measured:
[1] = tested on: P. falciparum 3D7 trophozoites; experiment: Metabolomic fingerprint profiling LC-MS; type: cell-based, Plasmodium falciparum; set-up: UDP-D-glucose / ADP-D-glucose: unit not given here
P. falciparum = experiment: EC50 listed in S2 Table Metabolomics (used to set the concentration tested); type: cell-based; conditions: Plasmodium falciparum; EC50 used for Factor_XEC50 in metabolomics; read-out: EC50_nM
[2] = metabolite level change after treatment

COc1ccc(-c2c(C)nn3c(N)c(C#N)cnc23)cc1OC [MMV396797]
Acetyllysine ([1]; S2 Table Metabolomics, metabolite Acetyllysine): -1.561 | N-acetyl-L-ornithine ([1]; S2 Table Metabolomics, metabolite N-acetyl-L-ornithine): -1.053 | N-carbamoyl-L-aspartate ([1]; S2 Table Metabolomics, metabolite N-carbamoyl-L-aspartate): 1.252 | NADPH ([1]; S2 Table Metabolomics, metabolite NADPH): 0.3593 | dAMP ([1]; S2 Table Metabolomics, metabolite dAMP): 0.5405 | dCMP ([1]; S2 Table Metabolomics, metabolite dCMP): 1.351 | dTDP ([1]; S2 Table Metabolomics, metabolite dTDP): 0.6464 | dTMP ([1]; S2 Table Metabolomics, metabolite dTMP): 1.055 | dTTP ([1]; S2 Table Metabolomics, metabolite dTTP): 0.1329 | dihydroorotate ([1]; S2 Table Metabolomics, metabolite dihydroorotate): 0.9521 | orotate ([1]; S2 Table Metabolomics, metabolite orotate): -0.1403 | DLH ([1]; S2 Table Metabolomics, peptide DLH): -2.487 | DLS/SDL/SID ([1]; S2 Table Metabolomics, peptide DLS/SDL/SID): -1.077 | PD ([1]; S2 Table Metabolomics, peptide PD): -0.9589 | PEE ([1]; S2 Table Metabolomics, peptide PEE): -1.335 | PVNF ([1]; S2 Table Metabolomics, peptide PVNF): -1.44 | 3-phosphoglycerate ([1]; metabolite 3-phosphoglycerate, S2 Table Metabolomics): -0.332 | ADP-D-glucose ([1]; metabolite ADP-D-glucose, S2 Table Metabolomics): 0.000409 | ATP ([1]; metabolite ATP, S2 Table Metabolomics): -0.6534 | CDP ([1]; metabolite CDP, S2 Table Metabolomics, change in metabolite level after compound treatment): 0.6836 | D-sedoheptulose-1/7-phosphate ([1]; metabolite D-sedoheptulose-1/7-phosphate, S2 Table Metabolomics, change in metabolite level after compound treatment): 0.6682 | FAD ([1]; metabolite FAD, S2 Table Metabolomics): 0.02733 | GMP ([1]; metabolite GMP, S2 Table Metabolomics, change in metabolite level after compound treatment): 0.6724 | NAD+ ([1]; metabolite NAD+, S2 Table Metabolomics): 0.9649 | NADP+ ([1]; metabolite NADP+, S2 Table Metabolomics): 0.1001 | Octoluse Bisphosphate ([1]; metabolite Octoluse Bisphosphate, S2 Table Metabolomics, change in metabolite level after compound treatment): -0.3618 | Pyroglutamic acid ([1]; metabolite Pyroglutamic acid, S2 Table Metabolomics): -0.2754 | UDP-D-glucose ([1]; metabolite UDP-D-glucose, S2 Table Metabolomics): 0.1529 | UDP-D-glucuronate ([1]; metabolite UDP-D-glucuronate, S2 Table Metabolomics): 0.1151 | UDP-N-acetyl-glucosamine ([1]; metabolite UDP-N-acetyl-glucosamine, S2 Table Metabolomics): 0.3642 | UDP ([1]; metabolite UDP, S2 Table Metabolomics, change in metabolite level after compound treatment): 0.7706 | UMP ([1]; metabolite UMP, S2 Table Metabolomics, change in metabolite level after compound treatment): 0.7638 | UTP ([1]; metabolite UTP, S2 Table Metabolomics, change in metabolite level after compound treatment): 0.02297 | a-ketoglutarate ([1]; metabolite a-ketoglutarate, S2 Table Metabolomics): -0.2189 | citrate/isocitrate ([1]; metabolite citrate/isocitrate, S2 Table Metabolomics, change in metabolite level after compound treatment): -0.742 | cytidine ([1]; metabolite cytidine, S2 Table Metabolomics): -0.8311 | dATP ([1]; metabolite dATP, S2 Table Metabolomics): -0.6595 | dGMP/AMP ([1]; metabolite dGMP/AMP, S2 Table Metabolomics, change in metabolite level after compound treatment): 0.1443 | fumarate ([1]; metabolite fumarate, S2 Table Metabolomics, change in metabolite level after compound treatment): -0.5921 | glucose-1/6-phosphate ([1]; metabolite glucose-1/6-phosphate, S2 Table Metabolomics, change in metabolite level after compound treatment): 0.3476 | glycerate ([1]; metabolite glycerate, S2 Table Metabolomics, change in metabolite level after compound treatment): -0.7107 | guanine ([1]; metabolite guanine, S2 Table Metabolomics, change in metabolite level after compound treatment): -0.1249 | guanosine ([1]; metabolite guanosine, S2 Table Metabolomics, change in metabolite level after compound treatment): -0.2185 | hypoxanthine ([1]; metabolite hypoxanthine, S2 Table Metabolomics): -0.6773 | indole ([1]; metabolite indole, S2 Table Metabolomics): -0.01428 | inosine ([1]; metabolite inosine, S2 Table Metabolomics, change in metabolite level after compound treatment): -0.2482 | 2_3-Diphosphoglyceric acid [1, 2]: 0.4884 | 4-phosphopantothenate [1, 2]: 0.5554 | 6-phospho-D-gluconate [1, 2]: 0.1152 | FMN [1, 2]: 0.2278 | IMP [1, 2]: 0.7032 | Pyrophosphate [1, 2]: 0.391 | Sedoheptoluse bisphosphate [1, 2]: -0.2371 | cyclic-AMP [1, 2]: 0.5443 | glutathione disulfide [1, 2]: 0.05378 | lactate [1, 2]: -0.5978 | myo-inositol [1, 2]: -0.8022 | nicotinate ([1]; metabolite nicotinate, S2 Table Metabolomics): 0.06441 | ornithine ([1]; metabolite ornithine, S2 Table Metabolomics): -0.4887 | phosphoenolpyruvate ([1]; metabolite phosphoenolpyruvate, S2 Table Metabolomics): -0.1659 | pyruvate ([1]; metabolite pyruvate, S2 Table Metabolomics, change in metabolite level after compound treatment): -0.5507 | ribose-phosphate ([1]; metabolite ribose-phosphate, S2 Table Metabolomics): -0.3757 | sarcosine/alanine ([1]; metabolite sarcosine/alanine, S2 Table Metabolomics, change in metabolite level after compound treatment): -0.5535 | sn-glycerol-3-phosphate ([1]; metabolite sn-glycerol-3-phosphate, S2 Table Metabolomics): -0.1272 | succinate/methylmalonic acid ([1]; metabolite succinate/methylmalonic acid, S2 Table Metabolomics, change in metabolite level after compound treatment): -0.001406 | uridine ([1]; metabolite uridine, S2 Table Metabolomics, change in metabolite level after compound treatment): -0.3835 | xanthosine ([1]; metabolite xanthosine, S2 Table Metabolomics, change in metabolite level after compound treatment): -0.6585 | EC50 (P. falciparum): 477 nM
